The source of these data is patent US9732067B2, “Compounds and methods for activating the apoptotic arm of the unfolded protein response” (University of Kansas, priority 2012, dated 2017).

Data set [1] deals with CHOP (apoptotic) and XBP1 (adaptive) arms of the UPR. To be noted: prior screen, non-selective hits; cited from earlier work.
The test system of data set [2] is chickens. Conditions: grain from treated crops; cited from earlier work.
Data set [3] relates to PERK-eIF2α-CHOP (apoptotic) arm of the Unfolded Protein Response pathway. Description: UPR-CHOP primary assay (CHO-CHOP luciferase reporter). It is filed as cell-based. The protocol: The purpose of this assay was to detect activators of the PERK-eIF2α-CHOP (apoptotic) arm of the Unfolded Protein Response pathway.
Cells were passaged twice a week. […] Once the cells had reached confluency, old medium was aspirated and the flasks were washed with 20 mL DPBS per T225 flask. Cells were left in DPBS for about 30 seconds. Subsequently, 6.5 mL 0.05% trypsin solution was added into the flask and the flask was rocked gently so that the solution covered the surface. The cells were allowed to detach by incubating at room temperature for about 4 minutes. The flask was washed with […] fresh growth media and the cell suspension was collected in a 50 mL sterile conical tube. The collected cells were centrifuged at 900 rpm for 5 minutes and re-suspended in 1 mL fresh growth media. An additional 19 mL of growth media was added and the tube was mixed gently. The cell suspension was filtered with a cell strainer and the cells were counted.
As above, cells were grown to confluency, washed, and detached with 5 mL trypsin solution for 4 minutes at room temperature. The flask was washed with 25 mL fresh growth media and the cell suspension was collected in a 50 mL sterile conical tube. The cells were centrifuged at 500 rpm for 10 minutes and re-suspended carefully in 1 mL fresh assay medium. An additional 19 mL of assay media was added the cells were mixed gently. The cell suspension was filtered with a cell strainer and the number of cells was counted. Cell density was adjusted to 1.0×10^5 cells/mL in medium.
On day 1, cell suspensions were prepared and 500 cells in 5 μL of assay media were plated in the wells of columns 1-48 of a 1536-well assay plate. The plates were centrifuged at 500 rpm for 1 minute and subsequently incubated at 37° C., 100% relative humidity, 5% CO2 for 16-18 hours.
[…] […] The plates were centrifuged at 1000 rpm for 1 minute and subsequently incubated at 37° C., 100% relative humidity, 5% CO2 for 6 hours.
Following the 6-hour incubation the plate was incubated for 10 minutes at room temperature and 3 μL of STEADY-GLO was added to each well. The plates were centrifuged at 2000 rpm for 2 minutes and subsequently incubated at room temperature for 10 minutes. Luminescence was measured with a luminometer.
The MLPCN library of approximately 330,000 compounds was tested in the UPR-CHOP primary screen utilizing a luciferase-based reporter expressed in a CHO cell line to identify activators of the CHOP apoptotic pathway. […]

Data set [4] concerns IRE1/XBP1 (adaptive) UPR sub-pathway. The experiment in a line: UPR XBP1 assay (CHO-XBP1-luciferase reporter cell line). In kind it is cell-based. How it is done:
A high-throughput screen of the NIH Molecular Libraries Small Molecule Repository (MLSMR) of >350,000 compounds was carried out using complementary cell-based reporter assays using stably transfected CHO-K1 cells that specifically identify activators of the PERK/eIF2α/CHOP (apoptotic), or the IRE1/XBP1 (adaptive) UPR sub-pathways.
The liquid samples were first confirmed at a single-point concentration of 10 μM in the […]. Of the liquid samples, 674 compounds were confirmed to have at least 32% activity at a 10 μM assay concentration. The confirmed compounds were further tested in dose response in the UPR-CHOP primary assay to obtain EC50 values. In addition, confirmed compounds were also dosed out in the CHO-XBP1-luciferase reporter cell line to identify compounds that were selective for the CHOP apoptotic over the adaptive XBP1 pathway.
The high throughput screening effort and subsequent validation produced two chemotypes, which were further explored by SAR analysis for potency, selectivity, the absence of reactive functionality, synthetic accessibility, physiochemical properties, and hit rate in unrelated PUBCHEM assays. SAR testing of re-constituted powders encompassed dose response testing of compounds in two assays: UPR-CHOP and UPR-XBP1 assays.

Data set [5] relates to MEF with wild-type CHOP. The experiment in a line: Proliferation / cytotoxicity (ATPLite) in MEF with wild-type CHOP. In kind it is cell-based, mouse. To be noted: Mus musculus; Table 5; MEF, ATPLite. The protocol: (§1) Several of the analogs derived from these changes were evaluated in secondary assays as they met the preliminary probe criteria for UPR-CHOP and UPR-XBP1 activity. Select compounds were assessed in a dose response manner for the ability to suppress proliferation in both the CHOP wild-type and CHOP knockout murine embryonic fibroblasts (−/− MEF KO CHOP)(Table 2).
(§2) It was determined whether ML291 and ML291 congeners would induce cell death (cytotoxicity as measured by ATPLite®, which measures production of ATP from living cells) in cells where these pathways are operant, but not activate them in the absence of the pathways.
A general note: In ATP-based viability assays light output follows the ATP content of the culture.

Data set [6] has as its system −/− MEF KO CHOP. Description: Proliferation / cytotoxicity (ATPLite) in MEF with CHOP KO. In kind it is cell-based. To be noted: Mus musculus; Table 5; MEF, ATPLite. How it is done:
as §1, §2

The mark [7] stands for this setting: Cricetulus griseus, read-out: CHOP EC50.
The mark [8] stands for this setting: Table 9, average of four runs, F12 HAMs, 10% hi-FBS, read-out: EC50 UPR CHOP Assay.
Setting [9] is: Table 9, average of four runs, F12 HAMs, 10% hi-FBS, read-out: EC50 UPR XBP1 Assay.

Read-outs that look alike come from different tables or passages of the source. Where only a bound is given, the exact number is not on record here.

Regarding `CN(C)C(=S)SSC(=S)N(C)C` [NSC-1771], the “induction of the UPR arms” value in data set [1] is “potently induce both the CHOP (apoptotic) and XBP1 (adaptive) arms of the UPR”. Also, in data set [2], the “toxicity in chickens” value is listed as “cause dyschondoplasia in the offspring of chickens”.
On to `O=C(Nc1ccc(S(=O)(=O)N2CCOCC2)cc1)c1ccc([N+](=O)[O-])o1` [Entry 1 (Table 1)], for which the “CHOP potency / activity” value in data set [3] was “low micromolar”. Besides, the “selectivity (XBP1 over CHOP)” value in data set [3] stood at 35 fold. Besides, the EC50 (usually the concentration needed to bring the measured effect to its halfway point) was 2.02 µM in data set [3] (setting [7]); > 71 µM in data set [4] (listed as SID104222717, read-out: XBP1 EC50); 70 to 80 µM in data set [4] (read-out: XBP1 EC50).
As for `O=C(Nc1ccc(S(=O)(=O)N2CCCCC2)cc1)c1ccc([N+](=O)[O-])o1` [Entry 8 (Table 1), N-(4-((piperidin-1-yl)sulfonyl)phenyl)-5-nitrofuran-2-carboxamide], the IC50 (usually the concentration that gives 50% inhibition) in data set [5] is 7.84 ± 1.2 µM; in data set [6], > 20 µM.
Turning to `O=C(Nc1ccc(S(=O)(=O)N2CCC(F)CC2)cc1)c1ccc([N+](=O)[O-])o1` [Entry 10 (Table 1), N-(4-((4-fluoropiperidin-1-yl)sulfonyl)phenyl)-5-nitrofuran-2-carboxamide], the IC50 is 17.5 ± 2.69 µM in data set [5] and > 20 µM in data set [6].
Turning to `O=C(Nc1ccc(S(=O)(=O)N2CCOCC2)cc1)c1ccc([N+](=O)[O-])s1` [Entry 2 (Table 3)], the “loss in CHOP potency versus 5-nitro-2-furan parent” value in data set [3] amounted to 6 fold.
Turning to `CC1(C)CCN(S(=O)(=O)c2ccc(NC(=O)c3ccc([N+](=O)[O-])o3)cc2)CC1` [Entry 13 (Table 1), N-(4-((4,4-dimethylpiperidin-1-yl)sulfonyl)phenyl)-5-nitrofuran-2-carboxamide], the EC50 in data set [3] (setting [7]) turned out to be 0.5 µM. For the same molecule, the “XBP1 liability” value in data set [4] is recorded as “no discernable XBP1 liability”. The IC50 worked out at 3.02 ± 0.6 µM in data set [5] and 9.17 ± 3.34 µM in data set [6].
For the molecule `CC1(C)CCN(S(=O)(=O)c2ccc(NC(=O)c3ccc([N+](=O)[O-])o3)cc2)CC1` [Analog 5], the EC50 in data set [3] (setting [8]) was 0.77 µM; in data set [4] (setting [9]), > 80 µM.
Turning to `CC(C)(C)C1CCN(S(=O)(=O)c2ccc(NC(=O)c3ccc([N+](=O)[O-])o3)cc2)CC1` [Analog 4], the EC50 was 0.65 µM in data set [3] (setting [8]) and > 80 µM in data set [4] (setting [9]).
As to `CC1CCN(S(=O)(=O)c2ccc(NC(=O)c3ccc([N+](=O)[O-])o3)cc2)CC1` [Analog 1], the EC50 is 0.76 µM in data set [3] (setting [8]) and > 80 µM in data set [4] (setting [9]).
In the case of `CCN(CC)C(=S)SSC(=S)N(CC)CC` [disulfiram, bis(diethylthiocarbamoyl)disulfide], in data set [1], the “induction of the UPR arms” value was “potently induce both the CHOP (apoptotic) and XBP1 (adaptive) arms of the UPR”.
For the molecule `CC1CCN(S(=O)(=O)c2ccc(NC(=O)c3ccc([N+](=O)[O-])o3)cc2)CC1` [Entry 12 (Table 1), N-(4-((4-methylpiperidin-1-yl)sulfonyl)phenyl)-5-nitrofuran-2-carboxamide], the values for the IC50 in data set [5] and in data set [6] were 4.57 ± 1.24 µM and 16.3 ± 0.99 µM, respectively.
Taken in the same sequence, the figures for `CC(C)(C)C1CCN(S(=O)(=O)c2ccc(NC(=O)c3ccc([N+](=O)[O-])o3)cc2)CC1` [Entry 14 (Table 1), N-(4-((4-tert-butylpiperidin-1-yl)sulfonyl)phenyl)-5-nitrofuran-2-carboxamide] were 1.36 ± 0.54 µM and 2.05 ± 0.29 µM.
As for `O=C(Nc1ccc(S(=O)(=O)N2CCC(F)CC2)cc1)c1ccc([N+](=O)[O-])o1` [Analog 3], the EC50 is 0.43 µM in data set [3] (setting [8]) and > 80 µM in data set [4] (setting [9]).
On to `O=C(Nc1nc2c(F)cc(F)cc2s1)c1ccccn1` [SID 104222735], for which the “CHOP potency / activity” value in data set [3] is on record as “low micromolar”. Moreover, the EC50 in data set [4] (read-out: XBP1 EC50) lay within 70 to 80 µM.
